Experimental data: ChEMBL document CHEMBL1201862, “PubChem BioAssay data set” (2004)
Values belong to the compound of their own block, whether it stands above or below them. Calls of active or inactive are those of the source.

Experiments:
[1] = biological target: T1, Polyadenylate-binding protein 1 (Homo sapiens, UniProt P11940); assay: MLLE binding blockers, Cy5 peptide tracer – biochemical, fluorescence polarization, Cy5-PAM2 peptide, secondary, miRNA deadenylation inhibitor project, dose response (AID 602260); assay type: functional; conditions: read-out: IC50_Mean
T1 sequence (P11940 whole entry, the tested form may be a part): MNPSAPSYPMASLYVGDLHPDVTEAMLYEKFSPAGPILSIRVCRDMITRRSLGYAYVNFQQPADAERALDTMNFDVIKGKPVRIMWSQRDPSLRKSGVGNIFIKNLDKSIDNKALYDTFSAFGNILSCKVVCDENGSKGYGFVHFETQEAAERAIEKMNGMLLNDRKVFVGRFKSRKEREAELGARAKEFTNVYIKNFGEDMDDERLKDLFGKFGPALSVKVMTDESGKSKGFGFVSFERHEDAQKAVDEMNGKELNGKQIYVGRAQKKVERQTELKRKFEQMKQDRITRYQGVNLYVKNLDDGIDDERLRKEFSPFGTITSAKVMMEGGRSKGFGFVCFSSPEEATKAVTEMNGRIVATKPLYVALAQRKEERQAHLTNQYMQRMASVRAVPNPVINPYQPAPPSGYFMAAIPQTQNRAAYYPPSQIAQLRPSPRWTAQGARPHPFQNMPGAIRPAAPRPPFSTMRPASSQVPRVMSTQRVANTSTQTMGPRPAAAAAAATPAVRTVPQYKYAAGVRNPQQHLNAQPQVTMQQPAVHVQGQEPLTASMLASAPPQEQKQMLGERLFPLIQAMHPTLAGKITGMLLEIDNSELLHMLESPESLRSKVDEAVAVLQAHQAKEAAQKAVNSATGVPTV

[2] = biological target: T1, Polyadenylate-binding protein 1; assay: MLLE domain peptide-binding blockers, IC50 – biochemical, fluorescence polarization, FITC-PAM2 peptide, dose response (AID 602259); assay type: functional; conditions: read-out: IC50_Mean
Protein S100-A4 = Protein S100-A4 (Homo sapiens, UniProt P26447); assay: human S100A4 peptide interaction inhibition curves – biochemical, fluorescence polarization, cherry-picked hits, dose response (AID 687001); assay type: functional
Chain of Protein S100-A4 (P26447 whole entry): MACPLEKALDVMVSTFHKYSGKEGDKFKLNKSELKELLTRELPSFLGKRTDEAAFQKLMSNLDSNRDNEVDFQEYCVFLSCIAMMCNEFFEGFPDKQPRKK

[3] = T. cruzi growth inhibition in host cells, dose response, cell-based, plate reader, dry powder, set 2 (AID 652275); assay type: functional
HeLa = assay: viability loss in HeLa cells – cell-based, ATP luminescence, cherry-pick samples, cytotoxicity control, dose response (AID 687004); assay type: functional; conditions: Homo sapiens
HEK293 = assay: viability loss in HEK293T cells – cell-based, ATP luminescence, cherry-pick samples, cytotoxicity control, dose response (AID 687005); assay type: functional; conditions: Homo sapiens;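 note: cells exposed to compound for 48 hours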
[4] = HEK293 Cytotoxicity Assay Measured in Cell-Based System Using Plate Reader - 7071-01_Inhibitor_Dose_CherryPick_Activity_Set2.; assay type: functional
[5] = general mammalian cell viability loss – inhibitor set, cherry-pick, set 2, cytotoxicity control for miR-122 modulator project, dose response (AID 720697); assay type: functional, cell-based
[6] = biological target: Nuclear receptor subfamily 5 group A member 2 (Homo sapiens, UniProt O00482); assay type: functional, cell-based;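 note: HEK293T cells transfected with LRH-1 and a StAR promoter luciferase reporter; potency for inhibitors that lower LRH-1 driven reporter light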
Chain of Nuclear receptor subfamily 5 group A member 2 (O00482 whole entry): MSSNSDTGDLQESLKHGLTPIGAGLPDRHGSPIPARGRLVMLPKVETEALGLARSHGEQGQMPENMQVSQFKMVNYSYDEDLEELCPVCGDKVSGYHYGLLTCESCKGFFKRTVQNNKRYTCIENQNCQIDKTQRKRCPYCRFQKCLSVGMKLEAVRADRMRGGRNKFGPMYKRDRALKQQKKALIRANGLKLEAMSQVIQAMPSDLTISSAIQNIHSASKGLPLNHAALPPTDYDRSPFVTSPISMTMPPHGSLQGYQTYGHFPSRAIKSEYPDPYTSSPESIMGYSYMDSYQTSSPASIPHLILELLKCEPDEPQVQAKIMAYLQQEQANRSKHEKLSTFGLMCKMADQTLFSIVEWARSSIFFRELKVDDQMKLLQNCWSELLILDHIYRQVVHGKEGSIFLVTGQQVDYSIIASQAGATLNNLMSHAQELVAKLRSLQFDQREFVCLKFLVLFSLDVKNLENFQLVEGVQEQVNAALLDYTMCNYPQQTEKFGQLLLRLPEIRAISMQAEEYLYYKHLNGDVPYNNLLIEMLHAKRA

Steroidogenic factor 1 = Steroidogenic factor 1 (Homo sapiens, UniProt Q13285); assay: Counterscreen for inverse agonists of the liver receptor homolog-1 (LRH-1; NR5A2): Luminescence-based cell-based high throughput dose response assay to identify inverse agonists of the Steroidogenic Factor 1 Nuclear Receptor (SF1; NR5A1).; assay type: functional
Chain of Steroidogenic factor 1 (Q13285 whole entry): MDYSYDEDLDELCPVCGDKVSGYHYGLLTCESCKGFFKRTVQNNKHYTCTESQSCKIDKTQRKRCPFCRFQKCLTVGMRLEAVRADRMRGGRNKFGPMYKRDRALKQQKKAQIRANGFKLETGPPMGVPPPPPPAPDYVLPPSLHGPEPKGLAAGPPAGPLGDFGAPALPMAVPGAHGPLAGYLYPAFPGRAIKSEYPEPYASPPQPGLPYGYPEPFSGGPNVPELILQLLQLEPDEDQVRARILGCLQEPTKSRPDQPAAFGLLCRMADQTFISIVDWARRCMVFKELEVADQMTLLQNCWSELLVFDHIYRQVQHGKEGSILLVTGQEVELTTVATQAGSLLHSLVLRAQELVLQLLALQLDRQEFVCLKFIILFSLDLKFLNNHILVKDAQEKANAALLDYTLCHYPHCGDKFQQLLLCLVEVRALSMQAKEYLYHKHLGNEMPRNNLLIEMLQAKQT

[7] = nonselective StAR promoter luciferase inhibitors – cell-based, luminescence, luciferase reporter, counter-screen for LRH-1 inverse agonist project, dose response (AID 651969); assay type: functional
[8] = biological target: T2, Beta-2 adrenergic receptor (Homo sapiens, UniProt P07550); assay: Dose response for HTS for Beta-2AR agonists via FAP method from Powderset1.; assay type: functional
T2 sequence (P07550 whole entry): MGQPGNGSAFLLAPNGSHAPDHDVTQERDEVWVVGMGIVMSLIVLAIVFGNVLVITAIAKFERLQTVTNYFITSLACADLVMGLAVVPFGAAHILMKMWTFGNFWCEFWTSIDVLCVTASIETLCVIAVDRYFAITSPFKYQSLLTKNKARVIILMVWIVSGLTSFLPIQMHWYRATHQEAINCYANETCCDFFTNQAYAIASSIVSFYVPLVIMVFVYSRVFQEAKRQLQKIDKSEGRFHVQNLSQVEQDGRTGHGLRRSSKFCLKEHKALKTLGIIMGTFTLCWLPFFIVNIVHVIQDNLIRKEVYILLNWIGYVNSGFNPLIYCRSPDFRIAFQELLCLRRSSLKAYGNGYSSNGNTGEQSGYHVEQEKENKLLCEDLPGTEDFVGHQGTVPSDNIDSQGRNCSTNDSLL

[9] = biological target: T2, Beta-2 adrenergic receptor; assay: ADRB2 activation measured by internalization – cell-based, FAP fluorogen, flow cytometry, cherry pick 1, dose response (AID 588763); assay type: functional
Vero = assay: viability loss in Vero cells – cell-based, plate reader, cherry-pick samples, cytotoxicity control, dose response (AID 687020); assay type: functional; conditions: Chlorocebus sabaeus
[10] = biological target: T3, Heat shock factor protein 1 (Mus musculus, UniProt P38532); assay: decrease of HSF1-responsive luciferase luminescence – cell-based, NIH3T3, dose retest, confirmation (AID 2382); assay type: functional;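 note: NIH3T3 fibroblasts with HSF1-driven luciferase reporter stressed by proteasome inhibitor MG132; luminescence from HSF1-driven luciferase expression after 8 hours of MG132 stress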
T3 sequence (P38532 whole entry): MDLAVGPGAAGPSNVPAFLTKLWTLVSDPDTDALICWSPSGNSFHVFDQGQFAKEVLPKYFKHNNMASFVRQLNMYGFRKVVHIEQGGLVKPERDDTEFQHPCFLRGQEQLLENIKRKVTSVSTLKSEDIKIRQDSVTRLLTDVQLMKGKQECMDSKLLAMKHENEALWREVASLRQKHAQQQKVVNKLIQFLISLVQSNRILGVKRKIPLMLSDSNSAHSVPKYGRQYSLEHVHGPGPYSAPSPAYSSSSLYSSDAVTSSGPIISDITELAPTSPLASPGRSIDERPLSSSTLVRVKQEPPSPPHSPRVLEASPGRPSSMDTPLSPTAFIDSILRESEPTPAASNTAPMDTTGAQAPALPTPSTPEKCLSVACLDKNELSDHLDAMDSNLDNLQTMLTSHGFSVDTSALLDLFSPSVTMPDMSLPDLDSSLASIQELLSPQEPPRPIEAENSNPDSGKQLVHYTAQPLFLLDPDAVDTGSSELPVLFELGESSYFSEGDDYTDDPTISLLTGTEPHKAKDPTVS

Interleukin-8 [11] = biological target: T4, Interleukin-8 (Homo sapiens, UniProt P10145); assay: Dose Response confirmation of uHTS small molecule hits for cystic fibrosis induced NFkb Inhibitors in a TNFa-induced IL8 counterscreen.; assay type: functional; conditions: read-out: IC50_Mean
T4 sequence (P10145 whole entry): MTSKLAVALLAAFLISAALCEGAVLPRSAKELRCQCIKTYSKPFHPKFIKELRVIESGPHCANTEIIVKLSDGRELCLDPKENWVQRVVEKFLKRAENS

Interleukin-8 [12] = biological target: T4, Interleukin-8; assay: Dose Response confirmation of uHTS small molecule hits for cystic fibrosis induced NFkb Inhibitors in a PAF-induced IL8 counterscreen.; assay type: functional; conditions: read-out: IC50_Mean

IC50 [1]: > 66 µM (inactive)
IC50 [2]: > 66 µM (inactive)
AC50 (Protein S100-A4): 6.02 µM (active)
SMILES: Cc1cc2ccccc2n1CCNC(=O)c1ccc(Br)o1

SMILES: CN1CCCCN2[C@@H](CO)[C@H](c3ccc(Br)cc3)[C@@H]2C1
AC50 [3]: 16 µM (active)

SMILES: C[C@@H]1CN([C@H](C)CO)C(=O)c2c(c3ccccc3n2C)-c2ccccc2CO[C@H]1CN(C)S(=O)(=O)c1ccc(Cl)cc1
AC50 (HeLa): > 47 µM (inactive)
AC50 (HEK293): 23.1 µM (active)
AC50 [4]: 23.1 µM (active)

SMILES: CCCC(=O)Nc1ccc2c(c1)C(=O)N(C)[C@@H]1CC[C@H](CC(=O)NCC(F)(F)F)O[C@H]1CO2
AC50 [5]: 2.15 µM (active)

SMILES: COC(=O)c1ccc(NC(=O)CSc2nc3ccc[nH]c-3n2)cc1
IC50 [6]: 35.9 µM (inactive)
IC50 (Steroidogenic factor 1): 0.978 µM (active)
IC50 [7]: 35.9 µM (inactive)

EC50 [8]: 0.0435 µM (active)
EC50 [9]: 0.274 µM (active)
SMILES: CN(CC(=O)N1CCN(c2ccccn2)CC1)S(=O)(=O)c1ccccc1

SMILES: CC(=O)Nc1cccc(C(=O)OC(C)C(=O)NC(=O)NC2CCCCC2)c1 (configuration not stated)
AC50 (Vero): 23.6 µM (active)

EC50 [10]: 21.8 µM (active)
IC50 (Interleukin-8 [11]): > 79 µM (inactive)
IC50 (Interleukin-8 [12]): 14.5 µM (inactive)
SMILES: CCN(c1ccc(OC)cc1)c1[nH]cnc2ncnc1-2
